This series in a line: method code SF-HPLC, from DOI: 10.1021/jm4016729, PMID: 24422550. The conditions noted are these: pH 7.4.

SMILES strings stand for the structures.

The term logD denotes lipophilicity at a set pH, counting ionised and neutral species. Read a low logD as a more hydrophilic compound. The compound `O=C(NC1C2CC3CC1CC(O)(C3)C2)c1sc(C2CCCO2)nc1C1CC1` (configuration not stated) yielded a logD of 2.4.
`Cc1nc(C2=COC2)c(C(=O)NC2C3CC4CC2C(O)(C4)C3)s1` (configuration not stated) displayed a logD of 1.5.

Values taken from the SangsterLogP compilation.
